Reference: patent US20160022751A1, “NOVEL COMPOSITION FOR TREATING ALZHEIMER'S DISEASE AND IMPROVING COGNITIVE FUNCTION OF ALZHEIMER'S PATIENTS” (GANGNEUNG-WONJU NATIONAL UNIVERSITY INDUSTRY ACADEMY …, priority 2014, published 2016)

How the values were obtained:
Assay type in all cases: cell-based, human
p38 = p38 phosphorylation in HMO6 cells (western blot); conditions: Rg3 5 μg/ml, western blot (FIG. 18)
Procedure: FIG. 18 is a photograph showing a result of western blot analysis for confirming the degree of phosphorylation of ERK (extracellular-regulated kinase) and p38, according to an embodiment of the present invention. Depending on the presence of Rg3, the levels of phospho-ERK and phospho-p38 protein were investigated by immune-blotting. HMO6 cells were treated with Rg3 (5 μg/ml) after plated on 60 mm cell culture plates and western blot analysis was performed after the cells were placed in phenol red negative/sere-free DMEM medium for 1 h. The western blot analysis was carried out three times independently.
(§1) HMO6 cells were lysed in 1% RIPA buffer containing protease and phosphatase inhibitors (Roche, Mannheim, Germany) and whole-cell lysates were separated on 10% sodium dodecyl sulfate-polyacrylamide gel electrophoresis. After electrophoresis, the proteins were transferred to polyvinylidene fluoride membranes, and the membranes were blocked with 5% skim milk in Tris-buffered saline solution containing 0.1% Tween-20. The membranes were then immunoblotted with primary antibodies, anti-phospho-p38, anti-p38, anti-phospho-ERK, anti-ERK, and anti-f3-actin (Santa Cruz Biotechnology, USA), followed by incubation with horseradish peroxidase-conjugated anti-rabbit or anti-mouse secondary antibodies (Stressgen, USA). Blots were developed using an enhanced chemiluminescent solution (Thermo, USA).

IDE = IDE protein expression in HMO6 cells (western blot, immunocytochemistry); conditions: 5 μg/ml Rg3, 24 h (FIG. 19)
Procedure: FIG. 19 represents an images showing a result of western blot analysis of the expression of NEP (neprilysin) and IDE (insulin-degrading enzyme) in HMO6 cells (A); graphs representing the above result quantitatively (B and C), and fluorescence microscopic images representing immunocytochemical analyses (D and E). The expression of NEP and IDE in HMO6 cells was analyzed by western blot analysis and immunocytochemistry after treating Aβ42 (5 μM) or Rg3 (2.5 or 5 μg/ml) for 24 h to HMO6 cells in serum-free DMEM medium plated on 60 mm cell culture plates or chamber slides. The results are shown as mean±SD. * P<0.05, ** P<0.01, *** P<0.001.
as §1, with “Blots were developed using an enhanced chemiluminescent solution (Thermo, USA).” left out

clathrin = assay: Clathrin immunocytochemistry in HMO6 cells; conditions: Rg3 5 μg/ml, 24 h, immunocytochemistry (FIG. 20)
Procedure: FIG. 20 is a fluorescence microscopic image showing a result of immunocytochemical analysis investigating the expression of caveolin and clathrin in HMO6 cells treated with or without Rg3. HMO6 cells were treated with Rg3 (5 μg/ml) for 24 h after plated on chamber slides and then the cells were stained with primary antibodies binding specifically to caveolin and clathrin, respectively and counterstained with DAPI. The length of scale bar represents 10 μm.
The present inventors investigated whether ginsenosides can induce the expression of SRA, clathrin, caveolin 1, NEP or IDE and the differentiation of neurons actually through immunocytochemical analysis (ICC) and microscopic observations. Specifically, Cultured HMO6 cells were fixed in 4% paraformaldehyde (in 1×PBS) for 15 min, washed twice with 1×PBS supplemented with 100 mM glycine for 5 min, and incubated with permeabilization buffer consisting of 0.1% Triton X-100 (Sigma-Aldrich, USA) in 1×PBS for 30 min at room temperature. Blocking was performed with 1% bovine serum albumin (BSA, Sigma-Aldrich, USA) for 30 min at room temperature. Then, SRA, clathrin, caveolin1, NEP, or IDE mouse monoclonal antibody (1:200; Santa Cruz Biotechnology, USA) was added to 1% BSA in PBS with Tween 20 (PBST) and incubated for 2 h at room temperature. […]

## CC(C)=CCC[C@](C)(O)[C@H]1CC[C@]2(C)[C@@H]1[C@H](O)C[C@@H]1[C@@]3(C)CC[C@H](O[C@@H]4O[C@H](CO)[C@@H](O)[C@H](O)[C@H]4O[C@@H]4O[C@H](CO)[C@@H](O)[C@H](O)[C@H]4O)C(C)(C)[C@@H]3CC[C@]12C [ginsenoside Rg3]
p38
  phosphorylation of p38: promoted the phosphorylation
IDE
  IDE expression in cells: distinctively expressed
clathrin
  clathrin expression: highly expressed
